In patent publication US20220168268A1, “SMALL-MOLECULE INHIBITOR OF PD-1/PD-L1, PHARMACEUTICAL COMPOSITION THEREOF WITH PD-L1 ANTIBODY, AND APPLICATION OF SAME” (Guangzhou Maxinovel Pharmaceuticals Co., Ltd., priority 2019, published 2022) one finds IC50 data, which are given here for 23 compounds.

Molecules are shown by their SMILES. Where only a bound is given, the exact number is not on record here.

T1 sequence (Q9NZQ7 19-238 limits assumed): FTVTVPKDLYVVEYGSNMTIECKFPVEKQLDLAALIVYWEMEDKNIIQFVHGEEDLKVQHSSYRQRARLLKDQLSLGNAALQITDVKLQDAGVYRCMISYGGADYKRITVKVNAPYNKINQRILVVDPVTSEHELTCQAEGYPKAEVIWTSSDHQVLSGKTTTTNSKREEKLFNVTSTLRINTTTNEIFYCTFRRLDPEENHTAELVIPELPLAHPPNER

The assay concerns the target T1, PD-1/PD-L1 (Homo sapiens, UniProt Q9NZQ7).
T1 construct: unspecified kit tag (tag1 or tag2, recognised by the detection antibodies); purchased CisBio 64CUS000C-1
Briefly: Homogeneous Time-Resolved Fluorescence (HTRF) PD-1/PD-L1 binding assay. The following applies: CisBio kit. The procedure:
Homogenouse Time-Resolved Fluorescence (HTRF) binding assay was used to determine the binding activity of the compound of the present disclosure to PD-1/PD-L1.
The purchased kit (CisBio, #64CUS000C-1) contained the reagents required for experiments such as PD-1, PD-L1, anti-tagl-Eu, Anti-tag2-XL665, Dilute Buffer and Detection Buffer.
1. The compound was formulated to 10 concentrations with a three-fold concentration gradient with 100% DMSO.
2. The solution of the compound in DMSO was added to Dilute Buffer, and mixed evenly and then transferred to a 96-well plate.
3. PD-L1 was diluted with Dilute Buffer and added to the 96-well plate above.
4. PD-1 was diluted with Dilute Buffer, then added to the 96-well plate above and incubated at room temperature for 30 minutes.
5. One portion of anti-tag1-Eu and one portion of anti-tag2-XL665 were added to Detection Buffer, mixed evenly and transferred to the 96-well plate above.
6. The mixed solution in the 96-well plate were incubated at room temperature for 1 to 24 hours.
7. HTRF values were read by Envision.
For orientation: TR-FRET usually uses a lanthanide donor and a delayed reading to cut background.
As for `Cc1ccc(CN[C@@](C)(CO)C(=O)O)cc1/C=C/c1cccc(-c2ccc3c(c2F)OCCO3)c1C` [Compound 26, (S,E)-2-(3-(3-(5-fluoro-2,3-dihydrobenzo[b][1,4]dioxin-6-yl)-2-methylstyryl)-4-methylbenzylamino)-3-hydroxy-2-methylpropanoic Acid], the IC50 stood at 20 nM. In other words, the double-digit nanomolar range.

`Cc1c(/C=C/c2cc(CNC(C)(CO)C(=O)O)ccc2C(F)(F)F)cccc1-c1ccc2c(c1F)OCCO2` (centres unmarked) [Compound 20, (E)-2-(3-(3-(5-fluoro-2,3-dihydrobenzo[b][1,4]dioxin-6-yl)-2-methylstyryl)-4-(trifluoromethyl)benzylamino)-3-hydroxy-2-methylpropanoic Acid]: the IC50 stood at 18 nM.

In turn, `Cc1ccc(CNC(C)(CO)C(=O)O)cc1/C=C/c1cccc(-c2cccc(F)c2)c1C` (centres unmarked) [Compound 9] displayed an IC50 of 57 nM.

Compound `Cc1c(/C=C/c2cc(CNC(C)(CO)C(=O)O)ccc2C(F)(F)F)cccc1-c1cccc(F)c1F` (centres unmarked) [Compound 23, (E)-2-(3-(2-(2′,3′-difluoro-2-methylbiphenyl-3-yl)vinyl)-4-(trifluoromethyl)benzylamino)-3-hydroxy-2-methylpropanoic Acid] yielded an IC50 of 26 nM.

Consider `Cc1c(/C=C/c2cc(CN[C@@](C)(CO)C(=O)O)ccc2C(F)(F)F)cccc1-c1ccc2cn(C)nc2c1` [Compound 42, (S,E)-3-hydroxy-2-methyl-2-(3-(2-methyl-3-(2-methyl-2H-indazol-6-yl)-styryl)-4-(trifluoromethyl)benzylamino)propanoic Acid], for which the IC50 stood at 880 nM.

As for `Cc1nc2ccc(-c3cccc(/C=C/c4cc(CN[C@@](C)(CO)C(=O)O)ccc4C(F)(F)F)c3C)cc2o1` [Compound 43, (S,E)-3-hydroxy-2-methyl-2-(3-(2-methyl-3-(2-methylbenzo[d]oxazol-6-yl)-styryl)-4-(trifluoromethyl)benzylamino)-3-hydroxy-2-methylpropanoic Acid], the IC50 came out at 540 nM.

The compound `Cc1c(/C=C/c2cc(CNC(CO)C(=O)O)ccc2F)cccc1-c1ccc2c(c1)OCCO2` (centres unmarked) [Compound 12, (E)-2-(3-(3-(2,3-dihydrobenzo[b][1,4]dioxin-6-yl)-2-methylstyryl)-4-fluorobenzylamino)-3-hydroxypropanoic Acid] had an IC50 of 24 nM.

`Cc1c(/C=C/c2cc(CNC(CO)C(=O)O)ccc2C(F)(F)F)cccc1-c1cccc(F)c1F` (centres unmarked) [Compound 15, (E)-2-(3-(2-(2′,3′-difluoro-2-methylbiphenyl-3-yl)vinyl)-4-(trifluoromethyl)benzylamino)-3-hydroxypropanoic Acid] had an IC50 of 14 nM. Against the preceding compound, the IC50 is about 1.7-fold lower.

In the case of `Cc1ccc(CNC(C)(CO)C(=O)O)cc1/C=C/c1cccc(-c2ccc(F)cc2)c1C` (centres unmarked) [Compound 7, (E)-2-(3-(2-(4′-fluoro-2-methylbiphenyl-3-yl)vinyl)-4-methylbenzylamino)-3-hydroxy-2-methylpropanoic Acid], the IC50 was 1400 nM.

Consider `Cc1c(/C=C/c2cc(CNC(C)(CO)C(=O)O)cc3c2OCC3)cccc1-c1ccc2c(c1)OCCO2` (centres unmarked) [Compound 24, (E)-2-((7-(3-(2,3-dihydrobenzo[b][1,4]dioxin-6-yl)-2-methylstyryl)-2,3-dihydrobenzofuran-5-yl)methylamino)-3-hydroxy-2-methylpropanoic Acid], for which the IC50 is 430 nM. This IC50 is about 3.3-fold lower than that of the compound before.

As for `Cc1ccc(CN[C@@H](CO)C(=O)O)cc1/C=C/c1cccc(-c2ccc3c(c2F)OCCO3)c1C` [Compound 14, (S,E)-2-(3-(3-(5-fluoro-2,3-dihydrobenzo[b][1,4]dioxin-6-yl)-2-methylstyryl)-4-methylbenzylamino)-3-hydroxypropanoic Acid], the IC50 was determined as 19 nM.

Compound `Cc1c(/C=C/c2cc(CN[C@@H](CO)C(=O)O)ccc2C(F)(F)F)cccc1-c1ccc2c(c1F)OCCO2` [Compound 16] had an IC50 of 13 nM.

`Cc1c(CCc2cc(CNC(C)(CO)C(=O)O)ccc2C(F)(F)F)cccc1-c1ccccc1` (centres unmarked) [Compound 21, 2-(3-(2-(2-Methylbiphenyl-3-yl)ethyl)-4-(trifluoromethyl)benzylamino)-3-hydroxy-2-methylpropanoic Acid] returned an IC50 of 85 nM.

For `Cc1c(/C=C/c2cc(CNC(C)(CO)C(=O)O)ccc2F)cccc1-c1ccc2c(c1)OCCO2` (centres unmarked) [Compound 25, (E)-2-(3-(3-(2,3-dihydrobenzo[b][1,4]dioxin-6-yl)-2-methylstyryl)-4-fluorobenzylamino)-3-hydroxy-2-methylpropanoic Acid], the IC50 came out at 66 nM. This IC50 and that of the compound before are within 1.5-fold of each other.

In turn, `C[C@@](CO)(NCc1ccc(C(F)(F)F)c(/C=C/c2cccc(-c3ccccc3)c2F)c1)C(=O)O` [Compound 33, (S,E)-2-(3-(2-(2-fluorobiphenyl-3-yl)vinyl)-4-(trifluoromethyl)benzylamino)-3-hydroxy-2-methylpropanoic Acid] came in with an IC50 of 230 nM.

`Cc1c(/C=C/c2cc(CN[C@@](C)(CO)C(=O)O)ccc2C(F)(F)F)cccc1-c1ccc2ncoc2c1` [Compound 35, (S,E)-2-(3-(3-(benzo[d]oxazol-6-yl)-2-methylstyryl)-4-(trifluoromethyl)benzylamino)-3-hydroxy-2-methylpropanoic Acid] gave an IC50 of 1100 nM.

For `Cc1ccc(CNC(C)(CO)C(=O)O)cc1/C=C/c1cccc(-c2ccccc2)c1C` (centres unmarked) [Compound 8, (E)-2-(3-(2-(2-methylbiphenyl-3-yl)vinyl)-4-methylbenzylamino)-3-hydroxy-2-methylpropanoic Acid], the IC50 stood at 42 nM. This IC50 lies about 26-fold lower than the previous one.

`Cc1c(/C=C/c2cc(CN[C@@](C)(CO)C(=O)O)ccc2C(F)(F)F)cccc1-c1cn2ccnc2cn1` [Compound 37] returned an IC50 of 1300 nM.

The compound `Cc1c(/C=C/c2cc(CNC(CO)C(=O)O)ccc2C(F)(F)F)cccc1-c1ccc2c(c1)OCCO2` (centres unmarked) [Compound 1, (E)-2-(3-(3-(2,3-dihydrobenzo[b][1,4]dioxin-6-yl)-2-methylstyryl)-4-(trifluoromethyl)benzylamino)-3-hydroxypropanoic Acid] came in with an IC50 of 14 nM.

`Cc1c(/C=C/c2cc(CNC(CO)(CO)C(=O)O)ccc2C(F)(F)F)cccc1-c1ccccc1` [Compound 19, (E)-2-(3-(2-(2-methylbiphenyl-3-yl)vinyl)-4-(trifluoromethyl)benzylamino)-3-hydroxy-2-hydroxymethylpropanoic Acid] gave a half-inhibitory concentration (IC50) of 61 nM.

Compound `Cc1c(/C=C/c2cc(CN[C@@](C)(CO)C(=O)O)ccc2C(F)(F)F)cccc1-c1ccc2cnoc2c1` [Compound 38, (S,E)-2-(3-(3-(benzo[d]isoxazol-6-yl)-2-methylstyryl)-4-(trifluoromethyl)benzylamino)-3-hydroxy-2-methylpropanoic Acid] yielded an IC50 of more than 10000 nM.

`Cc1ccc(CN[C@@](C)(CO)C(=O)O)cc1/C=C/c1cccc(-c2ccccc2)c1C` [Compound 28, (S,E)-2-(3-(2-(2-methylbiphenyl-3-yl)vinyl)-4-methylbenzylamino)-3-hydroxy-2-methylpropanoic Acid]: the IC50 is 29 nM.

`Cc1ccc(CN[C@@](C)(CO)C(=O)O)cc1/C=C/c1cccc(-c2ccc3c(c2F)OCCO3)c1C` [Compound 30, (S,E)-2-(3-(3-(5-fluoro-2,3-dihydrobenzo[b][1,4]dioxin-6-yl)-2-methylstyryl)-4-methylbenzylamino)-3-hydroxy-2-methylpropanoic Acid] had an IC50 of 27 nM.

One may read the IC50 as the midpoint of a concentration-inhibition curve. Low values mean higher potency, high ones lower potency.
